Columns and labels:
[1] = tested on: CXF 609; assay: clonogenic assay, human tumor xenografts in vitro; format: cell-based; settings: Colon, CXF 609, Adeno carcinoma, soft agar, read-out: IC50 (nM), colony formation
Experimental: The anticancer activity of 5-(2,4-Dihydroxy-5-isopropyl-phenyl)-4-(4-morpholin-4-ylmethyl-phenyl)-isoxazole-3-carboxylic acid ethylamide is evaluated in 30 human tumor xenografts in vitro using a clonogenic assay. In this assay, human cells derived from cancer patients are evaluated for the capacity of 5-(2,4-Dihydroxy-5-isopropyl-phenyl)-4-(4-morpholin-4-ylmethyl-phenyl)-isoxazole-3-carboxylic acid ethylamide to inhibit the formation of 3 dimensional colonies. […] The tumor xenografts which have never been cultured in cell culture plastic dishes are isolated from nude mice. Tumor cell suspensions are prepared and incubated in 24 well plates containing layers of soft agar. Under these conditions a special subpopulation of cells selectively grows to colonies. 5-(2,4-Dihydroxy-5-isopropyl-phenyl)-4-(4-morpholin-4-ylmethyl-phenyl)-isoxazole-3-carboxylic acid ethylamide was tested in 6 concentrations up to […]. The tumor test panel comprises 1 to 6 models of 10 different human tumor or cancer types, which were bladder cancer, colon, liver, non small cell lung (adeno, squamous epithelium and large cell), small cell lung, mammary, ovary, pancreatic, melanoma and pleuramesothelioma. Antitumor effects are recorded as inhibition of colony formation in relation to untreated controls. Further information on the method has been published (Burger et al., 2004; Fiebig et al., 2004; Smith et al., 2005).
The cells are continually exposed to 5-(2,4-Dihydroxy-5-isopropyl-phenyl)-4-(4-morpholin-4-ylmethyl-phenyl)-isoxazole-3-carboxylic acid ethylamide and colony formation is determined.

[2] = tested on: BT-474 xenograft; assay: antitumor effect in the human breast cancer model BT-474; format: in vivo, mouse; settings: for T/C (%) / ΔTumor volume (mm^3): qw, i.v., 21 days treatment; for ΔTumor volume (mm^3): mean ±SEM
Experimental: The estrogen receptor positive cell line BT-474 was initially isolated from a human breast ductal carcinoma established from a solid, invasive ductal carcinoma of the breast obtained from a person (ATCC number HTB-20). The cells are grown in DMEM high glucose (4.5 g/l) supplemented with 10% FCS, […] and 1% sodium pyruvate. In preparation for cell inoculation, each mouse is subcutaneously implanted on the upper dorsal side with a 17β-Estradiol pellet (25 μg/day; 90 day release) using a trocar needle. BT-474 cells (5×10̂6) are injected in 200 μl Matrigel:HBSS (1:1 vol) (BD MatrigelTM Basement Membrane Matrix). The injection site is subcutaneously in the right flank. […] Tumor growth is monitored at regular intervals. The xenograft tumor sizes are measured manually with calipers and the tumor volume is estimated using the formula: (W×L×H×π/6), where width (W), height (H) and length (L) are the three largest diameters. Results are presented as mean ±SEM. Tumor data are analyzed by ANOVA with post hoc Dunnet's test for comparison of treatment versus control group. As a measure of efficacy the % T/C value is calculated at the end of the experiment according to: (Δtumor volumetreated/Δtumor volumecontrol)*100 where Δtumor volumes represent the mean tumor volume on the evaluation day minus the mean tumor volume at the start of the experiment. The antitumor effect of AUY922 is evaluated in the BT-474 xenograft model. In this study, the treatment period is 21 days. Each group consists of eight tumor bearing animals. At the end of the study, the tumor sizes in the treatment groups are compared to those of the vehicle treated groups and the effect is expressed as % T/C.

IC50 [1]: 55 nM
Structure (SMILES): CCNC(=O)c1noc(-c2cc(C(C)C)c(O)cc2O)c1-c1ccc(CN2CCOCC2)cc1 [AUY922, 5-(2,4-Dihydroxy-5-isopropyl-phenyl)-4-(4-morpholin-4-ylmethyl-phenyl)-isoxazole-3-carboxylic acid ethylamide]
T/C (%) ([2]; 8.3 mg/kg): 43%
ΔTumor volume (mm^3) ([2]; 8.3 mg/kg): 229 ± 73 mm^3
T/C (%) ([2]; 17 mg/kg): 9%
ΔTumor volume (mm^3) ([2]; 17 mg/kg, *P < 0.05): 46 ± 27* mm^3
T/C (%) ([2]; 25 mg/kg): 3%
ΔTumor volume (mm^3) ([2]; 25 mg/kg, *P < 0.05): 15 ± 23* mm^3
reduction of tumor sizes versus vehicle ([2]; once per week at 17-25 mg/kg): Statistically significant reduction of tumor sizes

Source: patent US20160045513A1, “ISOXAZOLE COMPOUND FOR THE TREATMENT OF CANCER” (Novartis AG, priority 2007, published 2016)
